Converted amounts (≈) assume the structure as drawn. Each block holds one molecule with its values, some of them ahead of it.
What was measured:
Caco-2 cells = assay: Intracellular localisation study (PK4 fluorescence microscopy); type: cell-based, human; conditions: PK4 20 μM alone, 37° C.
Description: The intracellular polymer uptake was studied using an experimental anticancer drug named PK4 (bis-naphthalimidopropyl spermine). […] Due to the inherent fluorescence of PK4, the uptake of PK4 into cells can be visualised using Fluorescence Microscopy. Caco-2 cells (human colorectal cancer cells) were maintained in Dulbecco's Modified Eagle's Medium (DMEM) supplemented with 10% foetal calf serum (FCS), 1% non-essential amino acids and 1% L-glutamine and 1% penicillin/streptomycin at 10% CO2, 95% humidity and 37° C. […] The controls were 1) polymer only solutions (0.1 μml^−1), 2) PK4 only solutions (20 μM) and 3) medium. At specific time intervals the cells were photographed using a Leica DMRB fluorescence microscopy (Leica Microsystems, UK). The experiment above was repeated with the cells incubated at 4° C. instead of 37° C.

[1] = Loading of griseofulvin into QCPAA aggregates (solubilisation); type: physicochemical; conditions: thermodynamic from solid; excess drug sonicated in distilled water, filtered; read-out: intrinsic (aqueous) solubility of griseofulvin
Protocol: Drug loading was then achieved by probe sonication of the drugs in the presence of polymer aggregates in distilled water. Polymer, drug solutions with varying polymer: drug weight ratios were prepared. […] The aqueous solubility of griseofulvin was determined by sonicating excess drugs in distilled water. The solution was then filtered and analysed as described earlier. A griseofulvin calibration curve was prepared using various standard solutions (1-30 μgml^−1, R^2=0.993).

[2] = Loading of propofol into QCPAA or CePAA (solubilisation)
Protocol: Drug loading was carried out as described above. To determine the concentration of encapsulated drug, the solutions were filtered (0.45 μm) and the filtrates were dissolved in methanol and subsequently analysed using an ultraviolet-visible spectrophotometer at the wavelength of 272 nm. A propofol calibration graph was prepared using various standard solutions (0.012-0.16 mgml^−1, R^2=0.998). The filtered formulations were sized using photon correlation spectroscopy and imaged by scanning electron microscopy (SEM).

Structure (SMILES): O=C1c2cccc3cccc(c23)C(=O)N1CCCNCCCNCCCCNCCCNCCCN1C(=O)c2cccc3cccc(c23)C1=O [PK4, bis-naphthalimidopropyl spermine]
- time until fluorescence was detected in cells (Caco-2 cells): 4.5 h

- solubility [1]: 48.3 ± 1 µg/mL (≈ 137 µM)
Structure (SMILES): COC1=CC(=O)C[C@@H](C)[C@]12Oc1c(Cl)c(OC)cc(OC)c1C2=O [griseofulvin]

Structure (SMILES): CC(C)c1cccc(C(C)C)c1O [propofol]
- solubility [2]: 112 µg/mL (≈ 628 µM)
